{
  "source": "paper PMC7259601",
  "about": "(PLoS ONE, 2020)",
  "key": {"[1]": {"test_system": "adenylyl cyclase (activator effect)", "experiment": "CEREP Diversity Panel", "assay_type": "biochemical", "parameters": "dose or concentration left out as unconfirmed", "method": "(§1) […]. MAO-A inhibition at 10 μM was 37%, in line with internal data."}, "[2]": {"test_system": "ATPase (Na+/K+)", "experiment": "CEREP Diversity Panel", "assay_type": "biochemical", "parameters": "dose or concentration left out as unconfirmed", "method": "as §1"}, "[3]": {"test_system": "COMT (catechol- O-methyl transferase)", "experiment": "CEREP Diversity Panel", "assay_type": "biochemical", "parameters": "dose or concentration left out as unconfirmed", "method": "as §1"}, "[4]": {"molecular_target": "T1, MAO-A (Mus musculus, UniProt Q64133)", "T1 construct": "from tissue; host or cells: mouse brain (homogenate ex vivo; living animal in the L-5-HTP test)", "T1 sequence (Q64133 1-526)": "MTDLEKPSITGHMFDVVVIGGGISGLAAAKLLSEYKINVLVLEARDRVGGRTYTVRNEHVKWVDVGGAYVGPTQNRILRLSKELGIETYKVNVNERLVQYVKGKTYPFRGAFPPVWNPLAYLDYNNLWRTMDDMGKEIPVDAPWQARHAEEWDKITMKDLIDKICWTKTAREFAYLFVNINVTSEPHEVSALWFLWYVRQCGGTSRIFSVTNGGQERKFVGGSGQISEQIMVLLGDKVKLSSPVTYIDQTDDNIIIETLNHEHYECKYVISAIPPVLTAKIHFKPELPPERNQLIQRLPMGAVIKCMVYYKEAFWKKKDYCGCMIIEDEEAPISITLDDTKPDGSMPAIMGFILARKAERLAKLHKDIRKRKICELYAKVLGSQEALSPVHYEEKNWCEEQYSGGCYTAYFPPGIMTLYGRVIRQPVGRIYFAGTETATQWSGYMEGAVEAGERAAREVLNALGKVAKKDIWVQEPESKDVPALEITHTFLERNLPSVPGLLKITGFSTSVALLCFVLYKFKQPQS", "experiment": "L-5-HTP-induced symptoms test", "assay_type": "in vivo, CD1 mice", "settings": "mouse; p.o. gavage, followed by 100 mg/kg L-5-HTP i.p.; read-out: ED50 potentiation of L-5-HTP-induced symptoms", "method": "Male C57BL/6 mice (8 weeks of age, 25-30 g) procured from Harlan Interfauna Iberica were housed in the same condition that in MAO-B PEA section. This test was performed essentially as previously described. Test compound was administered p.o. at several dose levels to groups of mice (N = 10/dose) 60 min before an i.p. injection of L-5-HTP (100 mg/kg). This dose of 5-L-HTP produced no effects in control animals. […] Studies were performed in accordance with the institutional guidelines for the care and use of laboratory animals (European Communities Council Directive 86/609/EEC) established by the Ethical Committee for Animal Experimentation at the PRAAL-PCB.\nThis test was performed essentially as previously described [90](Koe et al., 1983). Test compound was administered p.o. at several dose levels 60 min before an i.p. injection of L-5-HTP. […] One score assigned to each symptom observed per animal, giving a maximal obtainable score of 30 per group of 10 mice.\nBehavior was rated as outline above."}, "[5]": {"molecular_target": "KDM1A (Homo sapiens, UniProt O60341)", "experiment": "KDM1A inhibition assay (Amplex Red, dimethylH3K4 peptide)", "assay_type": "biochemical", "parameters": "purchased BPS Bioscience 50100"}, "[6]": {"test_system": "SAMP8 mice", "experiment": "Open Field (OF)", "assay_type": "in vivo, mouse", "settings": "0.32 or 0.96 mg/kg/day", "method": "Both male and female mice from the senescence accelerated strain SAMP8 and its control SAMR1 of different ages (see Table S3 for details) were used in these studies. Mice were breed in the animal facilities of the Pharmacy Faculty (University of Barcelona), maintained in a at 22 ± 2 °C controlled temperature in a 12 hr light / dark cycle (lights on at 8:00 am; 300 lux/0 lux) with ad libitum access to food (2018 TEKLAD, Harlan) and water. Male mice were housed individually (males) or in groups of 4-5 animals (females) in plastic colony boxes with a sawdust bedding material. […] SAMR1 mice treated with vehicle were included as a control. […] Drug concentration was calculated weekly in function of body weight and corrected in function of drinking water consumption. Cognitive function was evaluated by NORT, social behavior was evaluated by RI and anxiety and motor function were evaluated by EPM and OF. […]\nA 50 × 50-cm white plastic arena with 25-cm-high walls was used to analyze spontaneous exploratory behavior. […] The movements of each animal were video recorded during 5 min. Locomotor activity was analyzed by video-tracking over the captured images using SMART® (v 2.5.21 (rat) or v3.0 (mice), PanLab, SLU, Spain).\nNovel Object Recognition Test (NORT): Time exploring the novel (NO) and the familiar object (FO) was measured and a discrimination Index (DI) was defined as (NO-FO)/(NO+FO). […]"}},
  "note": "Read-outs that look alike come from different tables or passages of the source.",
  "data": [
    {"smiles": "Nc1nnc(CN[C@@H]2C[C@H]2c2ccc(OCc3ccccc3)cc2)o1", "note": "[ORY-2001, vafidemstat]", "values": [
      {"measurement": "% inhibition", "setting": "[1]", "result": 0, "unit": "%"},
      {"measurement": "% inhibition", "setting": "[2]", "result": 4, "unit": "%"},
      {"measurement": "% inhibition", "setting": "[3]", "result": 11, "unit": "%"},
      {"measurement": "ED50", "setting": "[4]", "result": 20.5, "unit": "mg/kg"},
      {"measurement": "IC50", "setting": "[5]; mean IC50 KDM1A, mean ± SD, minimum 2 independent experiments", "result": "101 ± 40", "unit": "nM"},
      {"measurement": "IC50", "setting": "[5]; rKDM1A, N = 1, n = 2, read-out: IC50 KDM1A, representative dose-response curve", "result": 105, "unit": "nM"},
      {"measurement": "locomotor activity in the OF test", "setting": "[6]", "result": "no significant genotype or treatment differences"}
    ]}
  ]
}
